According to PubChem BioAssay AID1963828 (Molecular Pharmacology Branch, DTP, NCI, 2024):

Tested on: 991263-137-R1-J2-PDC complex spheroid viability
Experiment: Anticancer human tumor 991263-137-R1-J2-PDC patient-derived colon adenocarcinoma cell line growth inhibition [POLQ]
Conditions: for IC50: curve of first compound; for viability, T/C: stronger effect = lower value
Method in brief: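 Growth inhibition in 3D: complex spheroids (tumor PDC, HUVEC, MSC) treated with POLQ inhibitor combinations; where Cmax unknown, highest tested concentration 10 microM, except SN-38 at 1 microM.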

[1] = second compound 0.0316 µM, first compound 0.0316 µM
[2] = second compound 0.0316 µM, first compound 0.1 µM
[3] = second compound 0.0316 µM, first compound 0.316 µM
[4] = second compound 0.0316 µM, first compound 1 µM
[5] = second compound 0.0316 µM, first compound 3.16 µM
[6] = second compound 0.0316 µM, first compound 10 µM
[7] = second compound 0.1 µM, first compound 0.0316 µM
[8] = second compound 0.1 µM, first compound 0.1 µM
[9] = second compound 0.1 µM, first compound 0.316 µM
[10] = second compound 0.1 µM, first compound 1 µM
[11] = second compound 0.1 µM, first compound 3.16 µM
[12] = second compound 0.1 µM, first compound 10 µM
[13] = second compound 0.316 µM, first compound 0.0316 µM
[14] = second compound 0.316 µM, first compound 0.1 µM
[15] = second compound 0.316 µM, first compound 0.316 µM
[16] = second compound 0.316 µM, first compound 1 µM
[17] = second compound 0.316 µM, first compound 3.16 µM
[18] = second compound 0.316 µM, first compound 10 µM
[19] = second compound 1 µM, first compound 0.0316 µM
[20] = second compound 1 µM, first compound 0.1 µM
[21] = second compound 1 µM, first compound 0.316 µM
[22] = second compound 1 µM, first compound 1 µM
[23] = second compound 1 µM, first compound 3.16 µM
[24] = second compound 1 µM, first compound 10 µM
[25] = second compound 3.16 µM, first compound 0.0316 µM
[26] = second compound 3.16 µM, first compound 0.1 µM
[27] = second compound 3.16 µM, first compound 0.316 µM
[28] = second compound 3.16 µM, first compound 1 µM
[29] = second compound 3.16 µM, first compound 3.16 µM
[30] = second compound 3.16 µM, first compound 10 µM
[31] = second compound 10 µM, first compound 0.0316 µM
[32] = second compound 10 µM, first compound 0.1 µM
[33] = second compound 10 µM, first compound 0.316 µM
[34] = second compound 10 µM, first compound 1 µM
[35] = second compound 10 µM, first compound 3.16 µM
[36] = second compound 10 µM, first compound 10 µM
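Also: spheroids exposed to compounds for 7 days before readout.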
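For viability, T/C in this document: 100% = DMSO vehicle control viability.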

COc1cc(C2c3cc4c(cc3C(OC3OC5COC(C)OC5C(O)C3O)C3COC(=O)C23)OCO4)cc(OC)c1O (stereo unspecified) + Nc1ccc(C#CCN(C(=O)Cc2ncc(C(F)(F)F)cc2C(F)(F)F)c2ccc(F)cc2)nn1
IC50 (second compound 0.0316 µM): > 10 µM | IC50 (second compound 0.1 µM): > 10 µM | IC50 (second compound 0.316 µM): > 10 µM | IC50 (second compound 1 µM): > 10 µM | IC50 (second compound 3.16 µM): > 10 µM | IC50 (second compound 10 µM): > 10 µM | viability, T/C [1]: 106% | viability, T/C [2]: 94.4% | viability, T/C [3]: 108% | viability, T/C [4]: 94.4% | viability, T/C [5]: 93.2% | viability, T/C [6]: 74.4% | viability, T/C [7]: 115% | viability, T/C [8]: 99.8% | viability, T/C [9]: 102% | viability, T/C [10]: 98.9% | viability, T/C [11]: 91% | viability, T/C [12]: 74.5% | viability, T/C [13]: 97.9% | viability, T/C [14]: 122% | viability, T/C [15]: 107% | viability, T/C [16]: 92.4% | viability, T/C [17]: 93.5% | viability, T/C [18]: 72.2% | viability, T/C [19]: 100% | viability, T/C [20]: 104% | viability, T/C [21]: 97.8% | viability, T/C [22]: 96.4% | viability, T/C [23]: 99.9% | viability, T/C [24]: 74.9% | viability, T/C [25]: 96.3% | viability, T/C [26]: 96.8% | viability, T/C [27]: 103% | viability, T/C [28]: 86.7% | viability, T/C [29]: 72.1% | viability, T/C [30]: 66.1% | viability, T/C [31]: 89.6% | viability, T/C [32]: 96.1% | viability, T/C [33]: 88.7% | viability, T/C [34]: 68.8% | viability, T/C [35]: 70.9% | viability, T/C [36]: 61.5%

COc1cccc2c1C(=O)c1c(O)c3c(c(O)c1C2=O)CC(O)(C(=O)CO)CC3OC1CC(N)C(O)C(C)O1 (stereo unspecified) + Nc1ccc(C#CCN(C(=O)Cc2ncc(C(F)(F)F)cc2C(F)(F)F)c2ccc(F)cc2)nn1
IC50 (second compound 0.0316 µM): 1.27 µM | IC50 (second compound 0.1 µM): 1.48 µM | IC50 (second compound 0.316 µM): 1.25 µM | IC50 (second compound 1 µM): 1.04 µM | IC50 (second compound 3.16 µM): 0.822 µM | IC50 (second compound 10 µM): 0.614 µM | viability, T/C [1]: 102% | viability, T/C [2]: 92.4% | viability, T/C [3]: 92.8% | viability, T/C [4]: 51.7% | viability, T/C [5]: 43.4% | viability, T/C [6]: 42.6% | viability, T/C [7]: 103% | viability, T/C [8]: 97.8% | viability, T/C [9]: 91.5% | viability, T/C [10]: 53.2% | viability, T/C [11]: 45.1% | viability, T/C [12]: 40.2% | viability, T/C [13]: 94.7% | viability, T/C [14]: 98% | viability, T/C [15]: 91.9% | viability, T/C [16]: 53% | viability, T/C [17]: 38% | viability, T/C [18]: 35.1% | viability, T/C [19]: 88.6% | viability, T/C [20]: 109% | viability, T/C [21]: 81.8% | viability, T/C [22]: 52% | viability, T/C [23]: 37.4% | viability, T/C [24]: 37.4% | viability, T/C [25]: 90.6% | viability, T/C [26]: 94.3% | viability, T/C [27]: 76.9% | viability, T/C [28]: 43.8% | viability, T/C [29]: 38.4% | viability, T/C [30]: 28.8% | viability, T/C [31]: 91.6% | viability, T/C [32]: 88.4% | viability, T/C [33]: 61.2% | viability, T/C [34]: 39.3% | viability, T/C [35]: 28.8% | viability, T/C [36]: 16.4%

Nc1ccn(C2OC(CO)C(O)C2(F)F)c(=O)n1 (stereo unspecified) + Nc1ccc(C#CCN(C(=O)Cc2ncc(C(F)(F)F)cc2C(F)(F)F)c2ccc(F)cc2)nn1
IC50 (second compound 0.0316 µM): 5.74 µM | IC50 (second compound 0.1 µM): > 10 µM | IC50 (second compound 0.316 µM): 5.3 µM | IC50 (second compound 1 µM): > 10 µM | IC50 (second compound 3.16 µM): > 10 µM | IC50 (second compound 10 µM): > 10 µM | viability, T/C [1]: 96.1% | viability, T/C [2]: 75.6% | viability, T/C [3]: 64.4% | viability, T/C [4]: 58.4% | viability, T/C [5]: 55.2% | viability, T/C [6]: 45.8% | viability, T/C [7]: 89.6% | viability, T/C [8]: 77.5% | viability, T/C [9]: 59.2% | viability, T/C [10]: 61.7% | viability, T/C [11]: 59.9% | viability, T/C [12]: 47.6% | viability, T/C [13]: 94.3% | viability, T/C [14]: 74.1% | viability, T/C [15]: 65.9% | viability, T/C [16]: 64.2% | viability, T/C [17]: 57.3% | viability, T/C [18]: 43.1% | viability, T/C [19]: 92.6% | viability, T/C [20]: 68.3% | viability, T/C [21]: 69.5% | viability, T/C [22]: 59.8% | viability, T/C [23]: 55.8% | viability, T/C [24]: 50.2% | viability, T/C [25]: 104% | viability, T/C [26]: 82.1% | viability, T/C [27]: 69.4% | viability, T/C [28]: 62.5% | viability, T/C [29]: 63.4% | viability, T/C [30]: 51.2% | viability, T/C [31]: 104% | viability, T/C [32]: 89.6% | viability, T/C [33]: 71.1% | viability, T/C [34]: 69.5% | viability, T/C [35]: 64.3% | viability, T/C [36]: 60.7%
